Laboratory results as given in US6794383B2, “Heart muscular cell apoptosis inhibitors and remedies/preventives for heart diseases” (Takeda Chemical Industries, Ltd., priority 2000, dated 2004).

system: primary heart muscle cells derived from newborn rats; assay: Inhibitory activity on heart muscle cell apoptosis (serum-free culture, viable cell number by WST-8); type: cell-based, rat; conditions: mean ± SD of three independent experiments; concentration required to increase the mean viable cell number by 30% vs absence of test compound; serum-free Medium 199, 4 days
Excerpt: Newborn rats (within 1 day after birth) were obtained from pregnant Wister rats purchased from Charles River, anesthetized under ether, and sterilized with 70% ethanol, and then their hearts were excised with tweezers. The excised hearts were washed with a phosphate-buffered physiological saline (T900; Takara) and cut into pieces with surgical scissors. These tissue pieces were washed 4 to 5 times with a phosphate-buffered physiological saline to remove a majority of blood-derived non-heart muscle cells. To the tissue pieces derived from 10 newborns, 5 ml of enzyme solution (1.25 mg trypsin (Difco) and 0.25 mg collagenase (Sigma) per ml of phosphate-buffered saline (PBS)) was added and the mixture was stirred with a stirrer at 37° C. for 15 mins. Another 2.5 ml enzyme solution was then added twice repeatedly at a 15-minutes interval. Then, Medium 199 (Gibco) containing 10% fetal calf serum (Biowiker) was added in a half volume of the enzyme solution to terminate the enzyme reaction. The cells were filtered through a Cell Strainer (Falcon) and then centrifuged at 400×g for 5 minutes, whereby the cells were collected.
The cells thus collected from 10 newborns were suspended in 50 ml Medium 199 containing 10% fetal calf serum, plated onto 100 mm Petri dishes (Iwaki) in a volume of 10 ml/dish and cultured for 1 hour in a CO2 incubator set at 5% CO2 and 37° C. The cells were then recovered, filtered through a Cell Strainer and centrifuged at 400×g for 5 minutes to collect the primary heart muscle cells derived from newborn rats.
Then, the heart muscle cells from 10 newborn rats were suspended in 2 ml low-isotonic solution (prepared by dissolving 8.29 g NH4Cl, 1.0 g KHCO3, 37 mg EDTA/2Na (ethylenediaminetetraacetic acid disodium)(Dojindo) in 1 L of water) and left for 3 minutes to disrupt erythrocytes. After 10 ml Medium 199 containing 10% fetal calf serum was added thereto, the primary heart muscle cells from newborn rats were collected by centrifugation at 400×g for 5 minutes. The cells were suspended in Medium 199 containing 10% fetal calf serum and then filtered through a cell strainer. After 0.3% trypan blue was added to, and mildly mixed with, an aliquot of the resulting cell suspension, the number of heart muscle cells was counted on an erythrocyte counting plate.
The primary heart muscle cells from newborn rats were suspended at a density of 3×10^6 cells/ml in Medium 199 containing 10% fetal calf serum, put onto a 96-well plate in a volume of 0.1 ml/well, and then cultured in a CO2 incubator set at 5% CO2 and 37° C. After the plate was stirred with a micromixer (Taiyo Kagaku Kogyo), the medium was exchanged 3 times with serum-free Medium 199, and then test compounds (Compounds 1 to 5 obtained in Reference Examples) were added thereto. The cells were cultured for additional 4 days to induce apoptosis. Then, fetal calf serum was added thereto at a concentration of 10%, and the cells were further cultured for about 17 hours in a CO2 incubator set at 5% CO2 and 37° C. Finally, the number of viable cells was determined with Cell Counting Kit (Dojindo) using WST-8 (2-(2-methoxy-4-nitrophenyl)-3-(4-nitrophenyl)-5-(2,4-disulfophenyl)-2H-tetrazolium, monosodium salt) as the coloring substrate to determine the inhibition of the heart muscle cell apoptosis.
The above-mentioned exeriment was tripicated in an independent manner. […]

| SMILES | Minimal Effective Concentration [µM] |
| --- | --- |
| O=c1nc(-c2cccnc2)sc2ccccc12 [Compound 2, 2-(3-pyridyl)-4H-1,3-benzothiazin-4-one] | 0.041 ± 0.018 |
| O=c1nc(-c2ccccn2)sc2ccccc12 [Compound 1, 2-(2-Pyridyl)-4H-1,3-benzothiazin-4-one] | 0.015 ± 0.011 |
| O=c1nc(-c2ccncc2)sc2ccccc12 [Compound 3, 2-(4-pyridyl)-4H-1,3-benzothiazin-4-one] | 0.014 ± 0.0099 |
| CCOC(=O)/C=C1\NC(=O)c2ccccc2S1 [Compound 4, Ethyl 2-(4-oxo-3,4-dihydro-2H-1,3-benzothiazin-2-ylidene)acetate] | 0.019 ± 0.0078 |
| O=C1N/C(=C\C(=O)N2CCCCC2)Sc2ccccc21 [Compound 5, 2-[2-oxo-2-(1-piperidinyl)ethylidene]-2,3-dihydro-4H-1,3-benzothiazin-4-one] | 0.06 ± 0.041 |

system: phosphorylated STAT3 (Tyr705) / gp130 signal; assay: Enhancing action on gp130 signal: LIF-induced phosphorylation of STAT3 (Tyr705) by immunoblotting; type: cell-based, rat; conditions: 0.01-10 μM Compound 1 with 10 U/ml human LIF, 30 minutes, primary heart muscle cells from newborn rats, FIG. 1
Excerpt: STAT3 (signal transducers and activators of transcription-3) is a primary positive regulatory factor involved in transmission of gp130 signal. Phosphorylation of the tyrosine residue at the 705th position (Tyr705) is essential for activation of STAT3. Accordingly, this phosphorylation can be used as an indicator of activation of STAT3, that is, of an enhancing action on gp130 signal.
Primary heart muscle cells derived from newborn rats were stimulated with a small amount of LIF (Leukemia inhibitory factor) to induce gp130 signal in the presence of a test compound (Compound 1 obtained in Reference Example 1). Phosphorylation of Tyr705 was examined by immunoblotting with an antibody specifically recognizing phosphorylated STAT3, to confirm the enhancing action of the test compound on gp130 signal.
The primary heart muscle cells derived from newborn rats, obtained in the method of Experimental Example 1, were suspended at a density of 5×10^6 cells/ml in Medium 199 containing 10% fetal bovine serum, then put to a 12-well plate (ASAHI TECHNO GLASS CORPORATION) in a volume of 2.0 ml/well, and cultured for 1 day in a 5% CO2 incubator set at 37° C. […]

| SMILES | phosphorylation of STAT3 induced by LIF |
| --- | --- |
| O=c1nc(-c2ccccn2)sc2ccccc12 [Compound 1, 2-(2-Pyridyl)-4H-1,3-benzothiazin-4-one] | can further promote phosphorylation of STAT3 |
